Legend:
Assay type in all cases: in vivo
Veronica persica [1] = assay: Post-emergence herbicidal action against harmful plants; details: 504 h, read-out: Herbicidal action against VERPE; for pest or weed control at 80 g/ha: dosage 80 g/ha, visual rating after about 3 weeks (Table D); for pest or weed control at 20 g/ha: dosage 20 g/ha, visual rating after about 3 weeks (Table F)
From the text: (§1) The abbreviations used in the tables below denote: • ABUTH Abutilon theophrasti • AMARE Amaranthus retroflexus • ECHCG Echinochloa crus galli • PHBPU Phartoitis purpureum • STEME Stellaria media • ALOMY Alopecurus myosuroides • AVEFA Avena fatua • MATIN Matricaria inodora • POLCO Fallopia convolvulus • VERPE Veronica persica 1. Pre-emergence Herbicidal Action Against Harmful Plants Seeds of monocotyledonous and dicotyledonous weed and crop plants are placed in sandy loam in wood-fibre pots, covered with soil and cultivated in a greenhouse under good growth conditions. 2 to 3 weeks after sowing, the test plants are treated at the one-leaf stage. The compounds according to the invention, formulated in the form of wettable powders (WP) or as emulsion concentrates (EC), are then sprayed as aqueous suspension or emulsion at a water application rate of 600 to 800 I/ha (converted) with the addition of 0.2% of wetting agent onto the green parts of the plants. After the test plants have been kept in the greenhouse under optimum growth conditions for about 3 weeks, the activity of the preparations is rated visually in comparison to untreated controls (herbicidal activity in percent (%): 100% activity=the plants have died, 0% activity=control plants, —=not tested).

Stellaria media [2] = assay: as above; details: 504 h, read-out: Herbicidal action against STEME; for pest or weed control at 80 g/ha: dosage 80 g/ha, visual rating after about 3 weeks (Table D); for pest or weed control at 20 g/ha: dosage 20 g/ha, visual rating after about 3 weeks (Table F)
From the text: as §1

Echinochloa crus galli [3] = assay: as above; details: 504 h, read-out: Herbicidal action against ECHCG; for pest or weed control at 80 g/ha: dosage 80 g/ha, visual rating after about 3 weeks (Table D)
From the text: as §1

Phartoitis purpureum = assay: as above; details: 504 h; for pest or weed control at 80 g/ha: dosage 80 g/ha, visual rating after about 3 weeks (Table D), read-out: Herbicidal action against PHBPU; for pest or weed control at 20 g/ha: dosage 20 g/ha, visual rating after about 3 weeks (Table F), read-out: Herbicidal action against PHPBU
From the text: as §1

Fallopia convolvulus = assay: as above; details: 504 h, dosage 80 g/ha, visual rating after about 3 weeks (Table D), read-out: Herbicidal action against POLCO
From the text: as §1

Amaranthus retroflexus [4] = assay: as above; details: 504 h, read-out: Herbicidal action against AMARE; for pest or weed control at 80 g/ha: dosage 80 g/ha, visual rating after about 3 weeks (Table D)
From the text: as §1

Abutilon theophrasti [5] = assay: as above; details: 504 h, read-out: Herbicidal action against ABUTH; for pest or weed control at 80 g/ha: dosage 80 g/ha, visual rating after about 3 weeks (Table D)
From the text: as §1

Veronica persica [6] = assay: Pre-emergence herbicidal action against harmful plants; details: 504 h, read-out: Herbicidal action against VERPE; for pest or weed control at 320 g/ha: dosage 320 g/ha, visual assessment after 3 weeks (Table A)
From the text: (§2) The abbreviations used in the tables below denote: • ABUTH Abutilon theophrasti • AMARE Amaranthus retroflexus • ECHCG Echinochloa crus galli • PHBPU Phartoitis purpureum • STEME Stellaria media • ALOMY Alopecurus myosuroides • AVEFA Avena fatua • MATIN Matricaria inodora • POLCO Fallopia convolvulus • VERPE Veronica persica 1. Pre-emergence Herbicidal Action Against Harmful Plants Seeds of monocotyledonous and dicotyledonous weed plants and crop plants are placed in wood-fibre pots in sandy loam and covered with soil. The compounds according to the invention and the compounds known from the prior art, formulated in the form of wettable powders (WP) or as emulsion concentrates (EC), are then applied as aqueous suspension or emulsion at a water application rate of 600 to 800 I/ha (converted) with the addition of 0.2% of wetting agent to the surface of the covering soil. After the treatment, the pots are placed in a greenhouse and kept under good growth conditions for the test plants. The visual assessment of the damage to the test plants is carried out after a trial period of 3 weeks by comparison with untreated controls (herbicidal activity in percent (%): 100% activity=the plants have died, 0% activity=like control plants, —=not tested). The results of comparative table A show the compounds according to the invention have a higher herbicidal activity than the compounds of the greatest structural similarity known from the closest prior art.

Stellaria media [7] = assay: as above; details: 504 h, read-out: Herbicidal action against STEME; for pest or weed control at 320 g/ha: dosage 320 g/ha, visual assessment after 3 weeks (Table A)
From the text: as §2

Echinochloa crus galli [8] = assay: as above; details: Echinochloa, 504 h, dosage 320 g/ha, visual assessment after 3 weeks (Table A), read-out: Herbicidal action against ECHCG
From the text: as §2

Alopecurus myosuroides = assay: as above; details: dosage 320 g/ha, visual assessment after 3 weeks (Table A)
From the text: as §2

Matricaria inodora [9] = assay: as above; details: Tripleurospermum inodorum, 504 h, dosage 320 g/ha, visual assessment after 3 weeks (Table A), read-out: Herbicidal action against MATIN
From the text: as §2

Amaranthus retroflexus [10] = assay: as above; details: 504 h, read-out: Herbicidal action against AMARE; for pest or weed control at 320 g/ha: dosage 320 g/ha, visual assessment after 3 weeks (Table A)
From the text: as §2

Abutilon theophrasti [11] = assay: as above; details: Abutilon theophrasti, 504 h, read-out: Herbicidal action against ABUTH; for pest or weed control at 320 g/ha: dosage 320 g/ha, visual assessment after 3 weeks (Table A); for pest or weed control at 80 g/ha: dosage 80 g/ha, visual assessment after 3 weeks (Table B)
From the text: as §2

Matricaria inodora [12] = assay: Post-emergence herbicidal action against harmful plants; details: Tripleurospermum inodorum, 504 h, read-out: Herbicidal action against MATIN
From the text: as §1

Avena fatua = assay: Pre-emergence herbicidal action against harmful plants; details: dosage 320 g/ha, visual assessment after 3 weeks (Table A)
From the text: as §2

VIOTR [13] = assay: Post-emergence herbicidal action against harmful plants; details: dosage 20 g/ha, visual rating after about 3 weeks (Table F)
Method: as §1, with “Seeds” for “The abbreviations used in the tables below denote: • ABUTH Abutilon theophrasti • AMARE Amaranthus retroflexus • ECHCG Echinochloa crus galli • PHBPU Phartoitis purpureum • STEME Stellaria media • ALOMY Alopecurus myosuroides • AVEFA Avena fatua • MATIN Matricaria inodora • POLCO Fallopia convolvulus • VERPE Veronica persica 1. Pre-emergence Herbicidal Action Against Harmful Plants Seeds”

VIOTR [14] = assay: Pre-emergence herbicidal action against harmful plants; details: dosage 80 g/ha, visual assessment after 3 weeks (Table B)
From the text: as §2, with “Seeds” for “The abbreviations used in the tables below denote: • ABUTH Abutilon theophrasti • AMARE Amaranthus retroflexus • ECHCG Echinochloa crus galli • PHBPU Phartoitis purpureum • STEME Stellaria media • ALOMY Alopecurus myosuroides • AVEFA Avena fatua • MATIN Matricaria inodora • POLCO Fallopia convolvulus • VERPE Veronica persica 1. Pre-emergence Herbicidal Action Against Harmful Plants Seeds”

[15] = dosage 20 g/ha, visual rating after about 3 weeks (Table F)
[16] = dosage 80 g/ha, visual assessment after 3 weeks (Table B)

Compound: CCS(=O)(=O)c1ccc(C(=O)C2=C(O)CCCC2=O)c(C(F)(F)F)c1OCC(=O)N(C)C [Compound E5]
- pest or weed control at 80 g/ha (Veronica persica [1]): 100%
- pest or weed control at 80 g/ha (Stellaria media [2]): 90%
- pest or weed control at 80 g/ha (Echinochloa crus galli [3]): 90%
- pest or weed control at 80 g/ha (Phartoitis purpureum): 90%
- pest or weed control at 80 g/ha (Fallopia convolvulus): 80%
- pest or weed control at 80 g/ha (Amaranthus retroflexus [4]): 80%
- pest or weed control at 80 g/ha (Abutilon theophrasti [5]): 90%
- pest or weed control at 320 g/ha (Veronica persica [6]): 100%
- pest or weed control at 320 g/ha (Stellaria media [7]): 90%
- pest or weed control at 320 g/ha (Echinochloa crus galli [8]): 100%
- Herbicidal action against ALOMY (Alopecurus myosuroides): 100%
- pest or weed control at 320 g/ha (Matricaria inodora [9]): 100%
- pest or weed control at 320 g/ha (Amaranthus retroflexus [10]): 100%
- pest or weed control at 320 g/ha (Abutilon theophrasti [11]): 100%

Compound: CCN(C)C(=O)COc1c(S(C)(=O)=O)ccc(C(=O)C2=C(O)CCCC2=O)c1C(F)(F)F [Compound E7]
- pest or weed control at 80 g/ha (Veronica persica [1]): 100%
- pest or weed control at 80 g/ha (Stellaria media [2]): 100%
- pest or weed control at 80 g/ha (Echinochloa crus galli [3]): 90%
- pest or weed control at 80 g/ha (Phartoitis purpureum): 100%
- pest or weed control at 80 g/ha (Fallopia convolvulus): 80%
- pest or weed control at 80 g/ha (Matricaria inodora [12]; dosage 80 g/ha, visual rating after about 3 weeks (Table D)): 100%
- pest or weed control at 80 g/ha (Amaranthus retroflexus [4]): 100%
- pest or weed control at 80 g/ha (Abutilon theophrasti [5]): 90%
- pest or weed control at 320 g/ha (Veronica persica [6]): 100%
- pest or weed control at 320 g/ha (Stellaria media [7]): 100%
- Herbicidal action against AVEFA (Avena fatua): 80%
- pest or weed control at 320 g/ha (Echinochloa crus galli [8]): 100%
- pest or weed control at 320 g/ha (Matricaria inodora [9]): 100%
- pest or weed control at 320 g/ha (Amaranthus retroflexus [10]): 100%
- pest or weed control at 320 g/ha (Abutilon theophrasti [11]): 100%

Compound: CCS(=O)(=O)c1ccc(C(=O)C2=C(SCC(=O)OC)CCCC2=O)c(C(F)(F)F)c1OCC(=O)N(C)C [Compound E9]
- pest or weed control at 20 g/ha (Veronica persica [1]): 100%
- pest or weed control at 20 g/ha (Stellaria media [2]): 90%
- pest or weed control at 20 g/ha (Echinochloa crus galli [3]; [15]): 90%
- pest or weed control at 20 g/ha (Phartoitis purpureum): 80%
- pest or weed control at 20 g/ha (Abutilon theophrasti [5]; [15]): 100%
- Herbicidal action against VIOTR (VIOTR [13]): 100%
- pest or weed control at 80 g/ha (Veronica persica [6]; [16]): 90%
- pest or weed control at 80 g/ha (Amaranthus retroflexus [10]; [16]): 90%
- pest or weed control at 80 g/ha (Abutilon theophrasti [11]): 90%

Compound: CCS(=O)(=O)c1ccc(C(=O)C2=C(O)CCCC2=O)c(C(F)(F)F)c1OC(C)C(=O)NC (centres unmarked) [Compound E11]
- Herbicidal action against VIOTR (VIOTR [14]): 90%
- pest or weed control at 20 g/ha (Veronica persica [1]): 100%
- pest or weed control at 20 g/ha (Stellaria media [2]): 90%
- pest or weed control at 20 g/ha (Phartoitis purpureum): 80%
- pest or weed control at 20 g/ha (Matricaria inodora [12]; [15]): 90%
- pest or weed control at 20 g/ha (Amaranthus retroflexus [4]; [15]): 100%
- Herbicidal action against VIOTR (VIOTR [13]): 100%
- pest or weed control at 80 g/ha (Stellaria media [7]; [16]): 70%
- pest or weed control at 80 g/ha (Abutilon theophrasti [11]): 90%

Reference: patent publication US8557741B2, “3-aminocarbonyl-substituted benzoylcyclohexanediones and their use as herbicides” (Bayer CropScience AG, priority 2010, dated 2013)
